Data: PubChem BioAssay (NCI)
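Following 48 hours of exposure in 96-well plates, responses at five concentrations were used to interpolate endpoints linearly. Abbreviation: GI50, concentration required for 50% inhibition of growth. TGI: concentration producing complete growth inhibition.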

How the values were obtained:
Test in all cases: inhibition of tumour cell growth, NCI panel, 48 h
A498 renal = test system: A498 renal
K-562 leukemia = test system: K-562 leukemia
MOLT-4 leukemia = test system: MOLT-4 leukemia
NCI-H522 lung = test system: NCI-H522 lung
NCI/ADR-RES ovarian = test system: NCI/ADR-RES ovarian
SN12C renal = test system: SN12C renal
SNB-19 CNS = test system: SNB-19 CNS
EKVX NSCLC = test system: EKVX NSCLC
TK-10 renal = test system: TK-10 renal
UACC-257 melanoma = test system: UACC-257 melanoma

SMILES | TGI (A498 renal) | TGI (K-562 leukemia) | TGI (MOLT-4 leukemia) | TGI (NCI-H522 lung) | TGI (NCI/ADR-RES ovarian) | TGI (SN12C renal) | TGI (SNB-19 CNS) | GI50 (A498 renal) | GI50 (EKVX NSCLC) | TGI (EKVX NSCLC) | GI50 (K-562 leukemia) | GI50 (MOLT-4 leukemia) | GI50 (NCI-H522 lung) | GI50 (NCI/ADR-RES ovarian) | GI50 (SN12C renal) | GI50 (SNB-19 CNS) | GI50 (TK-10 renal) | TGI (TK-10 renal) | GI50 (UACC-257 melanoma) | TGI (UACC-257 melanoma)
CC(=O)Oc1ccccc1[C@H]1CC(=O)C[C@H](c2ccccc2OC(C)=O)C12C(=O)c1ccccc1C2=O | > 100 µM | 84 µM | > 100 µM | 92.8 µM | > 100 µM | > 100 µM | > 100 µM |  |  |  |  |  |  |  |  |  |  |  |  | 
O=C(c1ccccc1)c1nn(-c2ccc(Cl)cc2)c2nc3nc(-c4ccccc4)cc(=O)n3nc12 | > 100 µM | > 100 µM | > 100 µM | > 100 µM | > 100 µM | 59.8 µM | > 100 µM | 58.8 µM | 30.3 µM | > 100 µM | 50.1 µM | 37.9 µM | 31.2 µM | 35.5 µM | 24 µM | 39.9 µM | 31.8 µM | 85.6 µM | 70.7 µM | > 100 µM
COc1cc2cc(Oc3ccc(NC(=O)Nc4ccc(F)c(C(F)(F)F)c4)cc3)c(C)nc2cc1OCCN1CCCCC1 |  | 3.79 µM |  |  |  |  | 3.29 µM |  |  |  | 1.29 µM |  |  |  |  | 1.76 µM |  |  |  | 
CCOC(=O)c1c(O)[nH]c(=O)c(CC)c1C | > 100 µM | > 100 µM | > 100 µM | > 100 µM | > 100 µM | > 100 µM | > 100 µM |  |  | > 100 µM |  |  |  |  |  |  |  | > 100 µM |  | > 100 µM
CN(C)CCN1C(=O)CC[C@@]2(C)C1=CC[C@@H]1[C@@H]2CC[C@@]2(C)[C@H]1CC[C@]2(C)O | > 100 µM | > 100 µM | > 100 µM | > 100 µM | > 100 µM | > 100 µM | > 100 µM |  |  | > 100 µM |  |  |  |  |  |  |  | > 100 µM |  | > 100 µM
CCOC(=O)c1ncoc1[C@H]1COC(C)(C)O1 |  | > 100 µM | > 100 µM | > 100 µM |  | > 100 µM | > 100 µM |  |  | > 100 µM |  |  |  |  |  |  |  | > 100 µM |  | > 100 µM
O=C(O)C(CS)NCc1c2ccccc2[n+]([O-])c2ccccc12 (stereo not drawn) | > 100 µM | > 100 µM | 78.9 µM | > 100 µM |  | > 100 µM | > 100 µM |  |  | > 100 µM |  |  |  |  |  |  |  | > 100 µM |  | > 100 µM
